Holding throughout (type): cell-based
The test system of assay [1] is Alexa Fluor647 labelled human IgE. In words: Uptake assay: internalization of Alexa Fluor 647 labelled IgE in ASGPR1/2 KO HepG2 cells (Example 6). The conditions noted are these: equimolar conjugate and AF647 IgE, normalized to unconjugated parent protein. On the procedure:
(§1) The following experiments were performed with HepG2 hepatocellular carcinoma cells, grown in Eagle's Minimal Essential Media (EMEM) supplemented with 10% FBS and penicillin/streptomycin.
(§2) HepG2 cells (25,000) were plated in 96-well plates 48 hours before the experiment was performed. On the day of the experiment, indicated the conjugate was mixed with an equimolar stock of Alexa Fluor647 labelled human IgE (Enzo Life Sciences, BPD-DIA-HE 1) in fresh EMEM as a 600 nM stock. The precomplexed conjugate:IgE mixture was incubated at room temperature for 30 minutes. During the precomplexing step, media from HepG2 was removed, and 40 ul of EMEM with 1/100 Fc Receptor Blocking Solution (Biolegend Human TruStain FcX, 422302) was added. Cells incubated in the receptor blocking solution for 10 minutes while making serial dilutions (1:3) of conjugate:IgE stock solution in EMEM. 40 ul of the conjugate:IgE mixture in EMEM was then added to cells (six dilutions, with final concentrations ranging from 300 nM to 1.23 nM) for 2 hours before washing with DPBS and detaching with 0.25% Trypsin/EDTA. Cells were pelleted in 96-well conical bottom plates, washed once with FACS Buffer with BSA (Rockland Immunochemicals), and resuspended in FACS Buffer with BSA. Uptake of fluorescently labelled IgE was measured by analyzing median cellular AF647 intensity by flow cytometry.
(§3) Cells were incubated with equimolar ratio of conjugate and AF647 IgE at indicated concentrations, with data normalized to unconjugated parent protein (Oma S35HWY57H-LC).

For assay [2], the system named is HepG2 cells. In words: Externalization of conjugates from a cell following internalization (cycling), high-throughput format (Example 11). Conditions: 50 nM conjugate 1 hour, stringent washes, Alexa Fluor 647-labelled a-human IgG 1 hour, FACS, normalized to unconjugated parent protein, average of two replicate wells. On the procedure:
as §1
The method was also adapted to a high-throughput format. In this assay, 25,000 HepG2 cells were plated in 96-well plates 48 hours before performing the experiment. The day of the experiment, cells were incubated with conjugate at indicated concentrations for 1 hour. Cells were then placed on ice to prevent trafficking/recycling during wash steps, and washed once with DPBS, once with sodium acetate buffer (20 mM, 150 mM NaCl, pH 5.2), once with Earle's Balanced Salt Solution (EBSS) adjusted to pH 2.5, and once again with DPBS, to remove conjugate from media and cell surface. Afterwards, 100 ul of prewarmed (to 37° C.) EMEM with 1 μg/ml of human a-IgG antibody conjugated to Alexa Fluor647 fluorophores was added to cells for 1 hour before washing with DPBS and detaching with 0.25% Trypsin/EDTA. Cells were pelleted in 96-well conical bottom plates, washed once with FACS Buffer with BSA (Rockland Immunochemicals), resuspended FACS Buffer with BSA and median AF647 intensity was analyzed by flow cytometry. The amount of conjugate capable of cycling to the cell surface (being externalized from the cell) and binding to the Alexa Fluor647 labelled α-IgG was measured by analyzing median cellular 647 fluorescence intensity by flow cytometry. […]. Reported values are the average of the values of two replicate wells.

The test system of assay [3] is human IgE. In words: Degradation of initial and subsequent dose of target in HepG2 cells (Example 12, Table 30). The conditions noted are these: normalized to unconjugated; for Normalized Fluorescence Post Wash Median Green: after wash, probe-conjugated IgE added for 4 hours, subsequent dose of target; for Normalized Fluorescence Precomplex Median Deep Red: precomplexed equimolar conjugate:IgE (cathepsin-cleavable quenched fluorescent probe) added for 2 hours, initial dose of target. On the procedure: as §1
HepG2 cells (25,000) were plated in 96-well plates 48 hours before performing the experiment. On the day of the experiment, indicated conjugate was diluted in fresh EMEM as a 2× stock, and mixed with an equimolar stock of human IgE (Enzo Life Sciences, BPD-DIA-HE 1) conjugated to a cathepsin-cleavable quenched fluorescent probe. The precomplexed conjugate:IgE mixture was incubated at 37 degrees Celsius for 30 minutes. Media from HepG2 was removed, and conjugate:IgE mixture in EMEM was added to cells for 2 hours. Cells were then placed on ice to prevent trafficking/recycling during wash steps, and washed once with DPBS, once with sodium acetate buffer (20 mM, 150 mM NaCl, pH 5.2), once with Earle's Balanced Salt Solution (EBSS) adjusted to pH 2.5, and once again with DPBS, to remove conjugate from media and cell surface. Afterwards, 100 ul of prewarmed (to 37 degrees Celsius) EMEM with cathepsin-cleavable quenched fluorescent probe-conjugated IgE was added to cells for 4 hours before washing with DPBS and detaching with 0.25% Trypsin/EDTA. Cells were pelleted in 96-well conical bottom plates, washed once with FACS Buffer with BSA (Rockland Immunochemicals), resuspended FACS Buffer with BSA and median 488 and 647 intensity was analyzed by flow cytometry. Delivery of labelled IgE to the lysosome and subsequent cleavage of initial precomplexed IgE was measured by analyzing median cellular 647 intensity, while cleavage of the post wash addition of IgE, which should only be degraded by recycling conjugates which released the first round of precomplexed IgE, was analyzed by median cellular 488 intensity. HepG2 cells were treated with human IgE (Enzo Life Sciences, BPD-DIA-HE1) conjugated to a cathepsin-cleavable quenched deep red (647) fluorescent probe precomplexed to conjugate fortwo hours, then washed, and fresh media with IgE conjugated to a green (488) cathepsin-cleavable fluorescent probe was then added without conjugate. […] Fluorescence values were measured by FACS and normalized to unconjugated parent protein. Reported values are the average of the values of two replicate wells.

Assay [4] concerns LysoLight-labelled human IgE. Kind of assay: Lysosomal degradation of LysoLight-labelled IgE in HepG2 cells, live cell imaging (Example 7). The conditions noted are these: equimolar conjugate:LysoLight IgE, area under the curve of deep red fluorescence over three days, normalized to unconjugated parent protein. On the procedure: as §1
HepG2 cells (15,000) were plated in 96-well plates 72 hours before performing the experiment. On the day of the experiment, indicated the conjugate was diluted in fresh EMEM and mixed with an equimolar stock of LysoLight-labelled human IgE (Enzo Life Sciences, BPD-DIA-HE1), at 200 nM of each compound. The precomplexed conjugate:IgE mixture was incubated at room temperature for 30 minutes. During the precomplexing step, media from HepG2 was removed, and 40 ul of EMEM with 1/100 Fc Receptor Blocking Solution (Biolegend Human TruStain FcX, 422302) was added. Cells incubated in the receptor blocking solution for 10 minutes while making serial dilutions (1:3) of conjugate:IgE stock solution in EMEM. 40 ul of the conjugate:IgE mixture in EMEM was then added to cells (five dilutions, with final concentrations ranging from 100 nM to 1.23 nM). Cells were placed in an IncuCyte Live-Cell Analysis System (Sartorius) for long term live cell imaging analysis (10× magnification, 3 images per well). One hour after addition of compound, image acquisition to measure red fluorescence from the LysoLight probe was started, with further Images collected every hour for 72 hours. Fluorescence of the LysoLight probe only occurs when cleaved by lysosomal cathepsin proteases, confirming lysosomal delivery and degradation of target. After 72 hours, mean red fluorescence was measured for each time point, and the area under the curve of fluorescence overtime was used to measure total degradation over the 3-day time period.

In assay [5] the test system is Alexa Fluor647 labelled human IgE. Kind of assay: Uptake assay: internalization of Alexa Fluor 647 labelled IgE in wild type HepG2 cells (Example 6). The conditions noted are these: equimolar conjugate and AF647 IgE, 2 hours, median cellular AF647 intensity by flow cytometry, normalized to unconjugated parent protein. Here is the method: as §1, §2, §3
The subject of assay [6] is recombinant IgE. In words: Degradation of super-stoichiometric levels of target in HepG2 cells (Example 13, Table 31). The conditions noted are these: 1 nM conjugate and 25 nM IgE for three days, (A-B)/C IgE depleted relative to conjugate, average of two replicate wells. On the procedure:
as §1
For evaluation of compounds in a high throughput format, 25,000 HepG2 cells were plated in a 96-well plate. The following day, 50 ul of 1 nM conjugate and 25 nM recombinant IgE in EMEM were added to the cells. 50 ul of the initial stock of conjugate:IgE was saved to quantify for an initial time point. Three days later, the media was collected from cells, and both initial and 72 hour time points were quantified for IgE concentration using the MSD assay.
HepG2 cells were incubated in media containing 1 nM conjugate and 25 nM IgE for three days. Concentrations of IgE at beginning and end of experiment were quantified by ELISA-based assay. Molar equivalents of IgE depleted relative to conjugate added are shown, calculated as (A-B)/C, where A is the initial concentration of IgE, B is the concentration of IgE at day three, and C is the concentration of conjugate. Reported values are the average of the values of two replicate wells.

For `CC(=O)N[C@@H]1[C@@H](O)[C@@H](O)[C@@H](CO)O[C@@H]1CCCOCCOCCNC(=O)NCCCC(CCCNC(=O)NCCOCCOCCC[C@H]1O[C@H](CO)[C@H](O)[C@H](O)[C@H]1NC(C)=O)(CCCNC(=O)NCCOCCOCCC[C@H]1O[C@H](CO)[C@H](O)[C@H](O)[C@H]1NC(C)=O)NC(=O)CBr` [Compound 2308], the “Normalized Fluorescence 100 nM ASGPR KO” value in assay [1] stood at 1.1. For the same molecule, the “Normalized Fluorescence” value in assay [2] was found to be 31.6. Moreover, in assay [3], the “Normalized Fluorescence Post Wash Median Green” value is given as 2.8 and the “Normalized Fluorescence Precomplex Median Deep Red” value was determined as 3.3. Further, in assay [4], the “Normalized Fluorescence 3.7 nM” value amounted to 6.7 and the “Normalized Fluorescence 100 nM” value came out at 2.3. Also, in assay [5], the “Normalized Fluorescence 3.7 nM WT” value turned out to be 55.1 and the “Normalized Fluorescence 100 nM WT” value is listed as 261.4. Also, in assay [6], the “Average Degradation (Molar equivalents)” value is recorded as 2.5 Molar equivalents.

For `COC[C@H]1OC[C@H](Nc2nc(OCCOCCOCCNC(=O)NCCCC(CCCNC(=O)NCCOCCOCCOc3cc(C(F)(F)F)nc(N[C@H]4CO[C@H](COC)[C@H](O)[C@@H]4O)n3)(CCCNC(=O)NCCOCCOCCOc3cc(C(F)(F)F)nc(N[C@H]4CO[C@H](COC)[C@H](O)[C@@H]4O)n3)NC(=O)CCOCCOCCOCCNS(=O)(=O)c3ccc(N4C(=O)C=CC4=O)cc3)cc(C(F)(F)F)n2)[C@@H](O)[C@H]1O` [Compound 2309], the “Normalized Fluorescence 100 nM ASGPR KO” value in assay [1] is 1.1. Further, in assay [2], the “Normalized Fluorescence” value is listed as 27.1. In assay [3], the “Normalized Fluorescence Post Wash Median Green” value turned out to be 2.5 and the “Normalized Fluorescence Precomplex Median Deep Red” value worked out at 3.0. Moreover, in assay [4], the “Normalized Fluorescence 3.7 nM” value stood at 6.7 and the “Normalized Fluorescence 100 nM” value was found to be 3.1. Moreover, in assay [5], the “Normalized Fluorescence 3.7 nM WT” value stood at 38.9 and the “Normalized Fluorescence 100 nM WT” value was 201.6. In assay [6], the “Average Degradation (Molar equivalents)” value amounted to 4.1 Molar equivalents.

As to `O=C(CCOCCOCCOCCNS(=O)(=O)c1ccc(N2C(=O)C=CC2=O)cc1)NC(CCCNC(=O)NCCOCCOCCOCc1csc(N[C@H]2CO[C@H](CO)[C@H](O)[C@@H]2O)n1)(CCCNC(=O)NCCOCCOCCOCc1csc(N[C@H]2CO[C@H](CO)[C@H](O)[C@@H]2O)n1)CCCNC(=O)NCCOCCOCCOCc1csc(N[C@H]2CO[C@H](CO)[C@H](O)[C@@H]2O)n1` [Compound 2310], in assay [1], the “Normalized Fluorescence 100 nM ASGPR KO” value was determined as 1.1. Further, the “Normalized Fluorescence” value in assay [2] stood at 16.6. In addition, in assay [3], the “Normalized Fluorescence Post Wash Median Green” value is 2.0 and the “Normalized Fluorescence Precomplex Median Deep Red” value is 2.3. Further, in assay [4], the “Normalized Fluorescence 3.7 nM” value is listed as 4.3 and the “Normalized Fluorescence 100 nM” value is 2.4. In addition, in assay [5], the “Normalized Fluorescence 3.7 nM WT” value came to 30.3 and the “Normalized Fluorescence 100 nM WT” value turned out to be 127.9. The “Average Degradation (Molar equivalents)” value in assay [6] is reported as 4.0 Molar equivalents.

In the case of `O=C(CCOCCOCCOCCNS(=O)(=O)c1ccc(N2C(=O)C=CC2=O)cc1)NC(CCCNC(=O)NCCOCCOCCCc1ccnc(N[C@H]2CO[C@H](CO)[C@H](O)[C@@H]2O)n1)(CCCNC(=O)NCCOCCOCCCc1ccnc(N[C@H]2CO[C@H](CO)[C@H](O)[C@@H]2O)n1)CCCNC(=O)NCCOCCOCCCc1ccnc(N[C@H]2CO[C@H](CO)[C@H](O)[C@@H]2O)n1` [Compound 2311], the “Normalized Fluorescence 100 nM ASGPR KO” value in assay [1] worked out at 1.1. For the same molecule, the “Normalized Fluorescence” value in assay [2] is reported as 11.6. Also, in assay [3], the “Normalized Fluorescence Post Wash Median Green” value was 1.7 and the “Normalized Fluorescence Precomplex Median Deep Red” value was 2.0. Also, in assay [4], the “Normalized Fluorescence 3.7 nM” value turned out to be 2.2 and the “Normalized Fluorescence 100 nM” value was found to be 2.2. For the same molecule, in assay [5], the “Normalized Fluorescence 3.7 nM WT” value is recorded as 22.6 and the “Normalized Fluorescence 100 nM WT” value came out at 92.9. Also, the “Average Degradation (Molar equivalents)” value in assay [6] was found to be 0.5 Molar equivalents.

Values taken from patent US20260224714A1, “CYCLING LYSOSOMAL TARGETING ANTIBODY CONJUGATES” (Lycia Therapeutics, Inc., priority 2023, published 2026).
